Assay results: US8486979B2, “1,2,4 oxadiazole compounds and methods of use thereof” (AbbVie Inc., priority 2006, dated 2013)

Target: T1, human α4β2 nicotinic acetylcholine receptor (Homo sapiens, UniProt P17787+P43681)
T1 construct: expressed in transfected cells
Test: Calcium flux (FLIPR) assay, HEK-293 cells expressing human α4β2 nAChR
Format: cell-based
Settings: α4β2 positive allosteric modulation, calcium fluorescence (FLIPR)
Experimental: Experimental Procedure: Human embryonic kidney (HEK) 293 cells stably expressing human α4β2 or α3β4 combinations are grown to confluency in 162 cm^2 tissue culture flasks in DMEM media supplemented with 10% FBS and 25 μg/ml zeocin and 200 μg/ml hygromycin B. IMR-32 neuroblastoma cells (ATCC) are grown to confluency in 162 cm^2 tissue culture flasks in minimum essential media supplemented with 10% FBS and 1 mM sodium pyruvate, 1% non-essential amino acids and 1% antibiotic-antimycotic. The cells are then dissociated using cell dissociation buffer and 100-150 μl per well of 3.5×10^5 cells/ml cell suspension (˜50,000-100,000 cells/well) was plated into 96-well black plates (poly-D-lysine precoated) with clear bottom and maintained for 24-48 hours in a tissue culture incubator at 37° C. under an atmosphere of 5% CO2: 95% air. Other clonal cell lines or primary cell cultures that express endogenous α4* nicotinic receptors may also be used in this assay. Calcium flux was measured using calcium-3 assay kit (Molecular Devices, Sunnyvale, Calif.) or fluo-4 (Invitrogen). A stock solution of the dye was prepared by dissolving each vial supplied by the vendor in Hank's balanced salt solution buffer (HBSS) or 150 mM NMDG, 20 mM CaCl2 containing 10 mM HEPES, The stock solution was diluted 1:20 using the same buffer before use. The growth media was removed from the cells. The cells were loaded with 100 μl of the dye per well and incubated at room temperature for up to one hour for HEK 293 clonal stable cell lines or 30 minutes-45 minutes at 37° C. for IMR-32 cells Fluorescence measurements were read simultaneously from all the wells by a Fluorometic Imaging Plate Reader (FLIPR) at an excitation wavelength of 480 nm and an emission wavelength of 520 nm. Baseline fluorescence was measured for the first 6 seconds at which 3× concentrations of modulator/test compounds were added to the cell plate at 50 μl and incubated for five minutes. The fluorescence intensity was captured every second for the first 1 minute followed by every 5 seconds for an additional 4 minutes. This procedure was followed by 50 μl of 4× concentration of agonist and readings were taken for a period of 3-5 minutes as described above. Data was normalized to maximal responses and plotted as a function of concentration. The concentration dependence of changes fluorescence responses was fitted by nonlinear regression analysis (GraphPad Prism, San Diego, Calif.) to obtain EC50 values.
The positive allosteric modulator effects on α4β2 nAChRs exemplified by 3-(3-pyridin-3-yl-1,2,4-oxadiazol-5-yl)benzonitrile (Compound 1) and 3,5-di(pyridin-3-yl)-1,2,4-oxadiazole (Compound 2) can be identified by measuring their potentiating effect to fluorescence changes in intracellular calcium using a fluorimetric plate reader. The potentiating effect of an α4β2 modulator on α4β2 receptor can also be illustrated by concentration responses to α4β2 agonists, for example 5-[(2R)-azetidin-2-ylmethoxy]-2-chloropyridine (Compound A) and (3R)-1-pyridin-3-ylpyrrolidin-3-amine (Compound B), in presence of a fixed concentration of PAM. […] In addition to compound A and B, other known nicotinic agonists can be left-shifted in presence of α4β2 PAM such as […]. […] This could lead to preferential effects of the agonist at the desired subtype, viz., α4β2, without effects at other nicotinic receptor subtypes and thus enhancing in vivo selectivity of the agonist.
The activity (allosteric effects—potentiation of fluorescence responses) ranges are defined as follows; “a” denotes as activity range from 200-400%, “b” denotes an activity range from 150-200%, “c” denotes an activity range from 120-150% and “d” denotes an activity range 90-120%. […]

T1 sequence (P43681 29-627 limits assumed): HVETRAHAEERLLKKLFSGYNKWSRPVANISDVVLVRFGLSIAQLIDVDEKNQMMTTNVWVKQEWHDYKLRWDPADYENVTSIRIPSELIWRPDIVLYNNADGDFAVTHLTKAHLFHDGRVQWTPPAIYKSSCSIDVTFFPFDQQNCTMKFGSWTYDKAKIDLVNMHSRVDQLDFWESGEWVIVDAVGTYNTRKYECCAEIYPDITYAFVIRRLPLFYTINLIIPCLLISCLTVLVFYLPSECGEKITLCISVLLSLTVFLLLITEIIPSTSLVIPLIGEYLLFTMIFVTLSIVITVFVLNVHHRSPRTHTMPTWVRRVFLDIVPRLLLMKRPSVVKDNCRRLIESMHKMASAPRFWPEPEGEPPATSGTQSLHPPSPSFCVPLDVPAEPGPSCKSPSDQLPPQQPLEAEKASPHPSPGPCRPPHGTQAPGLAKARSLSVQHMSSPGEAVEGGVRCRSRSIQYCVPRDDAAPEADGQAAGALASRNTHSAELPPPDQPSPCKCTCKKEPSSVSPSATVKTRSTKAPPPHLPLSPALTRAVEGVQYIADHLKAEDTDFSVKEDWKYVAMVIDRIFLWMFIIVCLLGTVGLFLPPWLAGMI
T1 sequence (P17787 26-502): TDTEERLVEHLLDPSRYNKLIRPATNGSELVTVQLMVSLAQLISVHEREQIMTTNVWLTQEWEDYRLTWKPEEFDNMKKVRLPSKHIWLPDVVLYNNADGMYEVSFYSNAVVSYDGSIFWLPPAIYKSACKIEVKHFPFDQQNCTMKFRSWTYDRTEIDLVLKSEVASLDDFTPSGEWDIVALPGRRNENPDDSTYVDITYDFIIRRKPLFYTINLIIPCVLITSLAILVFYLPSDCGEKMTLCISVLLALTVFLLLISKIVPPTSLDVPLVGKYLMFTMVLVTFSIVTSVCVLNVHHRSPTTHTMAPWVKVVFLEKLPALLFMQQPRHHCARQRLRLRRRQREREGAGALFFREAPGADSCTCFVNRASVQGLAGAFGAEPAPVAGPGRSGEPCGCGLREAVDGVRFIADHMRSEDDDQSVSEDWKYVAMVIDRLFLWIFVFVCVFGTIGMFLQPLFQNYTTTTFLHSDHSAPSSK

SMILES | Activity (allosteric effects—potentiation of fluorescence responses)
c1cncc(-c2noc(-c3cccnc3)n2)c1 [Example 2, 3,5-di(pyridin-3-yl)-1,2,4-oxadiazole] | a (“a” denotes as activity range from 200-400%)
N#Cc1cccc(-c2noc(-c3cccnc3)n2)c1 [Example 3, 3-(5-(pyridin-3-yl)-1,2,4-oxadiazol-3-yl)benzonitrile] | a (“a” denotes as activity range from 200-400%)
N#Cc1cccc(-c2noc(-c3ccc(F)nc3)n2)c1 [Example 4, 3-(5-(6-fluoropyridin-3-yl)-1,2,4-oxadiazol-3-yl)benzonitrile] | b (“b” denotes an activity range from 150-200%)
Brc1cncc(-c2nc(-c3cccnc3)no2)c1 [Example 5, 5-(5-bromopyridin-3-yl)-3-(pyridin-3-yl)-1,2,4-oxadiazole] | c (“c” denotes an activity range from 120-150%)
Cc1ccc(-c2noc(-c3cccc(C#N)c3)n2)cn1 [Example 7, 3-(3-(6-methylpyridin-3-yl)-1,2,4-oxadiazol-5-yl)benzonitrile] | b (“b” denotes an activity range from 150-200%)
Oc1cncc(-c2nc(-c3cccnc3)no2)c1 [Example 9, 5-(3-(pyridin-3-yl)-1,2,4-oxadiazol-5-yl)pyridin-3-ol] | d (“d” denotes an activity range 90-120%)
Fc1ccc(-c2nc(-c3cccnc3)no2)cc1F [Example 10, 5-(3,4-difluorophenyl)-3-(pyridin-3-yl)-1,2,4-oxadiazole] | a (“a” denotes as activity range from 200-400%)
Fc1cccc(-c2nc(-c3cccnc3)no2)c1F [Example 11, 5-(2,3-difluorophenyl)-3-(pyridin-3-yl)-1,2,4-oxadiazole] | a (“a” denotes as activity range from 200-400%)
N#Cc1ccc(-c2nc(-c3cccnc3)no2)cc1 [Example 19, 4-(3-(pyridin-3-yl)-1,2,4-oxadiazol-5-yl)benzonitrile] | b (“b” denotes an activity range from 150-200%)
NS(=O)(=O)c1cccc(-c2nc(-c3cccnc3)no2)c1 [Example 35, 3-(3-(pyridin-3-yl)-1,2,4-oxadiazol-5-yl)benzenesulfonamide] | a (“a” denotes as activity range from 200-400%)
O=[N+]([O-])c1cccc(-c2nc(-c3cccnc3)no2)c1 [Example 40, 5-(3-nitrophenyl)-3-(pyridin-3-yl)-1,2,4-oxadiazole] | a (“a” denotes as activity range from 200-400%)
CS(=O)(=O)c1cccc(-c2nc(-c3cccnc3)no2)c1 [Example 41, 5-(3-(methylsulfonyl)phenyl)-3-(pyridin-3-yl)-1,2,4-oxadiazole] | c (“c” denotes an activity range from 120-150%)
Clc1cc(-c2noc(-c3cccnc3)n2)ccn1 [Example 42, 3-(2-chloropyridin-4-yl)-5-(pyridin-3-yl)-1,2,4-oxadiazole] | c (“c” denotes an activity range from 120-150%)
O=c1ccc(-c2noc(-c3cccnc3)n2)c[nH]1 [Example 55, 5-(5-(pyridin-3-yl)-1,2,4-oxadiazol-3-yl)pyridin-2(1H)-one] | c (“c” denotes an activity range from 120-150%)
CC(=O)c1cccc(-c2nc(-c3cccnc3)no2)c1 [Example 68, 1-(3-(3-(pyridin-3-yl)-1,2,4-oxadiazol-5-yl)phenyl)ethanone] | b (“b” denotes an activity range from 150-200%)
N#Cc1cccc(-c2noc(-c3ccc(Cl)nc3)n2)c1 [Example 76, 3-(5-(6-chloropyridin-3-yl)-1,2,4-oxadiazol-3-yl)benzonitrile] | b (“b” denotes an activity range from 150-200%)
